Where two headings read alike, the source gives them in different places.
How the values were obtained:
[1] = rcm bond, 1,2-dichloroethane, 120.0 °C
[2] = target: T1, human TLR7 (Homo sapiens, UniProt Q9NYK1); assay: HEK293 TLR7-NFκB-luc cellular reporter assay; format: cell-based; conditions: lowest effective concentration; HEK293 transiently transfected with TLR7 and NFκB-luc; 6 hours incubation
T1 construct: expressed in transfected cells; host or cells: HEK293
T1 sequence (Q9NYK1 27-1049): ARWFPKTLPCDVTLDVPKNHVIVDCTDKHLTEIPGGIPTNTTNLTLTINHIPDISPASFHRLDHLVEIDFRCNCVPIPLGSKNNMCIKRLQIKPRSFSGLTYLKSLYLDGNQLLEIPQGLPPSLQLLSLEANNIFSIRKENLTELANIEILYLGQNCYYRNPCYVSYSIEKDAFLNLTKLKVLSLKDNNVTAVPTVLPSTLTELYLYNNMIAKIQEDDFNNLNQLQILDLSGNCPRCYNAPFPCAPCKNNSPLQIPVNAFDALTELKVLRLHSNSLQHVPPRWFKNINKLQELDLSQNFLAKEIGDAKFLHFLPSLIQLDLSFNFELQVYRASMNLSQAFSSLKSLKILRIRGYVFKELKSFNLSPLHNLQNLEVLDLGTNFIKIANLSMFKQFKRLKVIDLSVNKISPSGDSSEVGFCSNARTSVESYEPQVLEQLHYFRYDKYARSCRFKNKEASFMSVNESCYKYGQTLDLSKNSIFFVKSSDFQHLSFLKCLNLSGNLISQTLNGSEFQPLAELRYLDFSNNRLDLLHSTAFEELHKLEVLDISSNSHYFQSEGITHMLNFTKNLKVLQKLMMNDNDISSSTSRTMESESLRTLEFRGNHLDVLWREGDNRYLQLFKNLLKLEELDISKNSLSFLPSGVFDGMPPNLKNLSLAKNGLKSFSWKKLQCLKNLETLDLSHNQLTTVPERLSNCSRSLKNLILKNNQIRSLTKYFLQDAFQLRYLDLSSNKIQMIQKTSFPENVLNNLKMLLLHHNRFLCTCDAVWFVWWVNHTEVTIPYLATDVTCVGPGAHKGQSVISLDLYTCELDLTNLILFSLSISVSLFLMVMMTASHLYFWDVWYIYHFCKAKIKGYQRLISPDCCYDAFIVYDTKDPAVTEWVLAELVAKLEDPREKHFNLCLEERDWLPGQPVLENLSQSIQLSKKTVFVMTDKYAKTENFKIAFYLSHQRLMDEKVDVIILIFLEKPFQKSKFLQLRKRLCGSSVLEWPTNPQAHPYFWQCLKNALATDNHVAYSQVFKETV
Experimental: The ability of compounds to activate human TLR7 and TLR8 was assessed in a cellular reporter assay using HEK293 cells transiently transfected with a TLR7 or TLR8 expression vector and NFκB-luc reporter construct. Briefly, HEK293 cells were grown in culture medium (DMEM supplemented with 10% FCS and 2 mM Glutamine). For transfection of cells in 15 cm dishes, cells were detached with Trypsin-EDTA, transfected with a mix of CMV-TLR7 or TLR8 plasmid (1,700 ng), NFκB-luc plasmid (850 ng) and a transfection reagent and incubated 48 hours at 37° C. in a humidified 5% CO2 atmosphere. Transfected cells were then washed in PBS, detached with Trypsin-EDTA, and resuspended in medium to a density of 1.25×10^5 cells/mL. Forty microliters of cells were then dispensed into each well in 384-well plates, where 200 nL of compound in 100% DMSO was already present. Following 6 hours incubation at 37° C., 5% CO2, the luciferase activity was determined by adding 15 μl of Steady Lite Plus substrate (Perkin Elmer) to each well and readout performed on a ViewLux ultraHTS microplate imager (Perkin Elmer). Dose response curves were generated from measurements performed in quadruplicates. Lowest effective concentrations (LEC) values, defined as the concentration that induces an effect which is at least two fold above the standard deviation of the assay, were determined for each compound.

[3] = system: interferon production in human PBMC; assay: Interferon production in human PBMC, read out on HEK-ISRE-luc reporter cells; format: cell-based; conditions: lowest effective concentration, PBMC incubated overnight with compound, supernatant transferred to HEK-ISRE-luc cells; for minimal effective concentration: Homo sapiens, PBMC, 24 h, read-out: PBMC HEK-ISRE-luc (LEC; μM); for PBMC HEK-ISRE-luc (LEC; μM): 24 hours
Experimental: Activation of human TLR7 results in robust production of interferon by plasmacytoid dendritic cells present in human blood. The potential of compounds to induce interferon was evaluated by determination of interferon in the conditioned media from peripheral blood mononuclear cells (PBMC). The presence of interferon in the samples was determined, using an interferon reporter cell line stably expressing an interferon-stimulated responsive elements (ISRE)-luc reporter construct. The ISRE element with sequence TAGTTTCACTTTCCC (SEQ ID NO: 1) is highly responsive to the STAT1-STAT2-IRF9 transcription factor, which becomes activated upon binding of IFN-I to the IFN receptor. Briefly, PBMCs were prepared from buffy coats of at least two donors using a standard Ficoll centrifugation protocol. Isolated PBMCs were resuspended in RPMI medium supplemented with 10% human AB serum and 2×10^5 cells/well were dispensed into 384-well plates containing compounds (70 μL total volume). After overnight incubation of the PBMCs with the compounds, 10 μL of supernatant was transferred to 384-well plates containing 5×10^3 HEK-ISRE-luc cells/well in 30 μL (plated the day before). Following 24 hours of incubation, activation of the ISRE elements was measured by assaying luciferase activity using 40 μL/well Steady Lite Plus substrate (Perkin Elmer) and measured with ViewLux ultraHTS microplate imager (Perkin Elmer). The stimulating activity of each compound on the HEK-ISRE-luc cells was reported as LEC. The LEC in turn indicates the degree of ISRE activation on transfer of a defined amount of PBMC culture medium. Recombinant interferon alfa-2a (Roferon-A) was used as a standard control compound.

Structure (SMILES)	HEK293 TLR7-NFκB-luc (LEC; μM) [2] [µM]	ring closure, yield of all isomers ([1]; from C=CCOc1cccc(CN(C(=O)OCC)c2cc(OCC=C)nc(N)c2[N+](=O)[O-])c1, Hoveyda-Grubbs 2nd generation (with chlorodicyclohexylborane), 3.47 mM, 37.0 h) [%]	minimal effective concentration [3] [µM]	ring closure, yield of all isomers ([1]; from C=CCOc1cc(N(Cc2cccc(N(CC=C)C(=O)OC(C)(C)C)c2)C(=O)OCC)c([N+](=O)[O-])c(N)n1, Grubbs-Hoveyda catalyst 2nd generation (with chlorodicyclohexylborane), 4.1 mM, 16.0 h) [%]	PBMC HEK-ISRE-luc (LEC; μM) [3] [µM]
CCOC(=O)N1Cc2cccc(c2)OCC=CCOc2cc1c([N+](=O)[O-])c(N)n2		19			
Nc1nc2cc3c1nc(O)n3Cc1ccc(F)c(c1)OC/C=C/CCO2 [Compound 21]	0.9		0.25		
Nc1nc2cc3c1nc(O)n3Cc1cccc(c1)OC/C=C/CO2 [Compound 1]	2.88		0.3		
Nc1nc2cc3c1nc(O)n3Cc1cccc(c1)OCCCCCO2 [Compound 14]	7.01		2.4		
CCOC(=O)N1Cc2cccc(c2)N(C(=O)OC(C)(C)C)CC=CCOc2cc1c([N+](=O)[O-])c(N)n2				40	
COc1cc2cc(c1)OC/C=C/COc1cc3c(nc(O)n3C2)c(N)n1 [Compound 12]	1.08		0.3		
Nc1nc2cc3c1nc(O)n3Cc1ncccc1OCCCCCO2 [Compound 6]	1		0.16		
Nc1nc2cc3c1nc(O)n3Cc1cccc(c1)OC/C=C/CCO2 [Compound 10]	0.78		0.25		
Nc1nc2cc3c1nc(O)n3Cc1ccc(F)c(c1)OCCCCO2 [Compound 24]			2.14		
Nc1nc2cc3c1nc(O)n3Cc1ccc(F)c(c1)OCCCCCO2 [Compound 19]	14.96		2.22		
COc1ccc2cc1OC/C=C/COc1cc3c(nc(O)n3C2)c(N)n1 [Compound 7]	3.88		0.29		
Cl.Nc1nc2cc3c1nc(O)n3Cc1ccc(F)c(c1)OC/C=C/CCO2 [Compound 22]	1.83				0.39
Nc1nc2cc3c1nc(O)n3Cc1cccc(c1)CCCCCN2 [Compound 9]	11.09		10.9		
COc1ccc2cc1OCCCCOc1cc3c(nc(O)n3C2)c(N)n1 [Compound 8]	7.1		0.58		
Nc1nc2cc3c1nc(O)n3Cc1ncccc1OC/C=C/CCO2 [Compound 5]	2.14		0.082		
Nc1nc2cc3c1nc(O)n3Cc1cccc(c1)OC/C=C/CCCO2 [Compound 11]	1.25		0.45		
Nc1nc2cc3c1nc(O)n3Cc1cccc(c1)OCCCCO2 [Compound 2]	4.47		0.93		
Nc1nc2cc3c1nc(O)n3Cc1cccc(c1)C/C=C/CCO2 [Compound 3]	0.27		0.033		
COc1cc2cc(c1)OC/C=C/CCOc1cc3c(nc(O)n3C2)c(N)n1 [Compound 15]	0.18		0.04		
COc1cc2cc(c1)OCCCCOc1cc3c(nc(O)n3C2)c(N)n1 [Compound 13]	1.71		0.15		
Cl.Nc1nc2cc3c1nc(O)n3Cc1ccc(F)c(c1)OC/C=C/CO2 [Compound 17]	1.88				0.39
Cl.Nc1nc2cc3c1nc(O)n3Cc1ccc(F)c(c1)OCCCCCO2 [Compound 20]	4.99				1.61
Nc1nc2cc3c1nc(O)n3Cc1cccc(c1)NC/C=C/CO2 [Compound 18]	8.02		1.11		
Nc1nc2cc3c1nc(O)n3Cc1ccc(F)c(c1)OC/C=C/CO2 [Compound 16]	2.02		0.47		

Second part, led by results:

HEK293 TLR7-NFκB-luc (LEC; μM) [2] [µM]	Structure (SMILES)	ring closure, yield of all isomers ([1]; from C=CCOc1cccc(CN(C(=O)OCC)c2cc(OCC=C)nc(N)c2[N+](=O)[O-])c1, Hoveyda-Grubbs 2nd generation (with chlorodicyclohexylborane), 3.47 mM, 37.0 h) [%]	minimal effective concentration [3] [µM]	ring closure, yield of all isomers ([1]; from C=CCOc1cc(N(Cc2cccc(N(CC=C)C(=O)OC(C)(C)C)c2)C(=O)OCC)c([N+](=O)[O-])c(N)n1, Grubbs-Hoveyda catalyst 2nd generation (with chlorodicyclohexylborane), 4.1 mM, 16.0 h) [%]	PBMC HEK-ISRE-luc (LEC; μM) [3] [µM]
1.35	Nc1nc2cc3c1nc(O)n3Cc1cc(F)cc(c1)OC/C=C/CCO2 [Compound 27]		0.14		
1.19	Cl.Nc1nc2cc3c1nc(O)n3Cc1cc(F)cc(c1)OC/C=C/CO2 [Compound 31]				0.15
0.64	Nc1nc2cc3c1nc(O)n3Cc1cc(F)cc(c1)OC/C=C/CO2 [Compound 30]		0.15		
16.74	Nc1nc2cc3c1nc(O)n3Cc1cccc(c1)NCCCCO2 [Compound 23]		8.98		
1.92	Nc1nc2cc3c1nc(O)n3Cc1cccc(c1)OCC/C=C/CO2 [Compound 25]		0.53		
8.1	Nc1nc2cc3c1nc(O)n3Cc1cccc(c1)NCCCCCO2 [Compound 34]		2.11		
17.43	Nc1nc2cc3c1nc(O)n3CCc1cccc(c1)OC/C=C/CO2 [Compound 35]		1.98		
2.77	Nc1nc2cc3c1nc(O)n3Cc1cc(F)cc(c1)OCCCCO2 [Compound 33]		0.45		
0.91	Cl.Nc1nc2cc3c1nc(O)n3Cc1cc(F)cc(c1)OC/C=C/CCO2 [Compound 28]				0.15
1.14	Nc1nc2cc3c1nc(O)n3Cc1cccc(c1)NC/C=C\CCO2 [Compound 29]		0.48		
1.88	Nc1nc2cc3c1nc(O)n3Cc1cccc(c1)NC/C=C/CCO2 [Compound 26]		0.37		
13.75	COc1ccc2cc1OC/C=C/COc1cc3c(nc(O)n3CC2)c(N)n1 [Compound 36]		1.63		
2.92	Nc1nc2cc3c1nc(O)n3Cc1cc(F)cc(c1)OCCCCCO2 [Compound 32]		0.49		
